# Read-outs that look alike come from different tables or passages of the source.
# Legend:
# [1] = system: normal kidney epithelial (MDCK) cell line; test: Antiproliferative activity (MTS and Resazurin assays), MDCK normal cell line; assay type: cell-based
# Protocol: (§1) The antiproliferative activity of the studied substances was determined toward a series of cancer cell lines (HL-60 (ATCC CCL-240), BxPC-3 (ATCC CRL-1687), HeLa (ATCC CCL-2), RD (ATCC CCL-136)), and a normal cell line (MDCK (ATCC CCL-34)). These cell lines were cultured in accordance with the previously described method. Determination of the number of viable cells after cultivation in the presence of various concentrations of the studied substances was carried out by the MTS and Resazurin assays according to the previously described method. The 10-mM stock solutions of the studied compounds as well as the reference compound (doxorubicin) were prepared by dissolving 10 μmol of the corresponding compound in 1 mL of DMSO. The 0.1, 1, 10, and 100 μM solutions were prepared by dilution of the stock solutions with the corresponding medium and used for the study of antiproliferative activity.
# [2] = Acute toxicity assay against Daphnia magna; conditions: Daphnia magna, in vivo, pH 7.5
# Protocol: (§2) The general toxicity of the tested compounds was evaluated using Daphnia magna (Straus, 1820). Daphnia magna was originated from a culture maintained parthenogenetically at the Institute of Zoology (Laboratory of Systematics and Molecular Phylogeny).
# (§3) The test design was based on ISO 6341 : 2012. The test-organisms Daphnia magna Straus were fed with Chlorella vulgaris. These unicellular algae were grown using aseptic technology to exclude contamination of the culture by bacteria, algae or protozoa. Chlorella vulgaris were cultivated in Prat's growth medium containing KNO3 (1 μM), MgSO4·7H2O (40 μM), K2HPO4·3H2O (400 μM), FeCl3·6H2O (3.6 μM) in H2O distilled (adjusted the pH to 7.0, autoclaved and stored at 5°C).
# (§4) D. magna was maintained in aerated aqueous straw infusion growth media supplemented with CaCl2 ([…]), NaHCO3 (2.59 g/L), KCl (0.23 g/L), and MgSO4, 7H2O (4.93 g/L). (pH∼7.5 ± 0.2; O2 ≥ 6.0 mg/L).
# (§5) Juveniles were selected according to their size and kept in fresh medium for 24 h. D. magna was cultured in Costar® 24-well culture clear sterile multiple well plates covered by a lid to prevent the possibility of contamination and evaporation but at the same time to allow gaseous exchange between air and culture medium. Each well contained 10 daphnids in 1000 μL final volume of each dilution of the tested compounds.
# (§6) The bioassay was then repeated at the concentrations ranging from 0.1 to 100 μM (0.1, 1, 10, and 100 μM) in order to determine LC50 for each compound, including doxorubicin (the positive control). Aqueous straw infusion growth media was used to dilute the stock solutions to the required concentrations. […] A 0.1% solution of DMSO in aerated medium (pH∼7.5 ± 0.2; O2 ≥ 6.0 mg/L) was used as a negative control. Throughout the experiment, the juvenile daphnids were incubated at 22 ± 2 °C, using a 16 h/8 h light/dark cycle (500–1000 lx). The mobility (viability) of the test organisms was observed after the 24-h exposure. The experiment was performed in triplicate.
# (§7) The percentage of viability (V (%)) of Daphnia magna was calculated according to the formula:(1) V%=Nsample/Ncontrol×100.
# (§8) N - Number of viability of Daphnia magna.
# (§9) The compounds median lethal concentration that kills 50% of the juvenile daphnids (LC50) values were calculated from the dose-response equation determined by the least squares fit method.
# [3] = system: human leukemia HL-60 cell line; test: Antiproliferative activity (MTS and Resazurin assays), HL-60; assay type: cell-based; conditions: for inhibition at 0.1 µM / inhibition at 1 µM / inhibition at 10 µM: read-out: Inhibition of cell proliferation, (%); for IC50: HL-60, Table 3; for SI (selectivity index): IC50(MDCK)/IC50(HL-60)
# Protocol: as §1
# [4] = system: human epithelial pancreatic adenocarcinoma (BxPC-3) cell line; test: Antiproliferative activity (MTS and Resazurin assays), BxPC-3; assay type: cell-based; conditions: for SI (selectivity index): IC50(MDCK)/IC50(BxPC-3)
# Protocol: as §1
# [5] = system: human cervical epithelial (HeLa) cell line; test: Antiproliferative activity (MTS and Resazurin assays), HeLa; assay type: cell-based; conditions: for IC50: HeLa; for SI (selectivity index): IC50(MDCK)/IC50(HeLa)
# Protocol: as §1
# [6] = system: human muscle rhabdomyosarcoma (RD) cell line; test: Antiproliferative activity (MTS and Resazurin assays), RD; assay type: cell-based; conditions: for IC50: RD; for SI (selectivity index): IC50(MDCK)/IC50(RD)
# Protocol: as §1
# [7] = system: Candida albicans (ATCC 10231); test: Antifungal activity, serial dilutions in liquid broth, C. albicans; assay type: cell-based
# Protocol: (§10) Antibacterial and antifungal properties of the studied substances were determined on a series of standard strains of Gram-positive microorganisms (Staphylococcus aureus (ATCC 25923)), Gram-negative microorganisms (Escherichia coli (ATCC 25922)), and fungi (Candida albicans (ATCC 10231)) using the method of serial dilutions in liquid broth. Stock solutions of the studied compounds as well as the reference compounds (furacillinum and nystatin) were prepared by dissolving 10 mg of the corresponding compound in 1 mL of DMSO. After that, the starting solutions (1 mg/mL) were prepared by tenfold dilution of the stock solution with nutrition medium (2% of peptonate bullion). The next dilutions were prepared by serial double dilution with the nutrition medium.
# [8] = system: Escherichia coli (ATCC 25922); test: Antibacterial activity, serial dilutions in liquid broth, E. coli; assay type: cell-based; conditions: E. coli (G-)
# Protocol: as §10
# [9] = Antiradical activity, ABTS•+ method; conditions: read-out: IC50 toward ABTS•+ radical cation
# Protocol: The ABTS^•+ method was applied for the determination of antiradical activity of the studied substances. Standard solutions of ABTS^•+ radical cations and tested substances as well as the conditions of spectrophotometric measurements and calculations of inhibition were made as described. The 10-mM stock solutions of the studied compounds as well as the reference compound (trolox) were prepared by dissolving 10 μmol of the corresponding compound in 1 mL of DMSO. The 1, 10, 100, and 1000 μM solutions were prepared by the dilution of stock solutions with DMSO. After that, 20 μL of each tested compound solutions was transferred in a 96-well microtiter plate, and 180 μL of ABTS^•+ working solution was added to receive solutions with final concentrations of tested compounds 0.1, 1, 10, and 100, respectively.
# [10] = system: Daphnia magna; test: Acute toxicity assay against Daphnia magna; conditions: 24 h exposure; for LC50: Daphnia magna
# Protocol: as §2, §3, §4, §5, §6, §7, §8, §9
# [11] = system: Staphylococcus aureus (ATCC 25923); test: Antibacterial activity, serial dilutions in liquid broth, S. aureus; assay type: cell-based; conditions: S. aureus (G+)
# Protocol: as §10
# [12] = other: exposure in the test medium (immersion)
Structure (SMILES),SI (selectivity index) [3],SI (selectivity index) [4],SI (selectivity index) [5],SI (selectivity index) [6],MIC [7] [µg/mL],MIC [8] [µg/mL],IC50 [1] [µM],IC50 [9] [µM],"V, (%) percentage of viability of Daphnia magna ([10]; 0.1 μM) [%]","V, (%) percentage of viability of Daphnia magna ([10]; 1 μM) [%]","V, (%) percentage of viability of Daphnia magna ([10]; 10 μM) [%]","V, (%) percentage of viability of Daphnia magna ([10]; 100 μM) [%]",LC50 [10] [µM],"Inhibition of cell proliferation, (%) ([3]; HL-60, 0.1 μM)","Inhibition of cell proliferation, (%) ([3]; HL-60, 1 μM)","Inhibition of cell proliferation, (%) ([3]; HL-60, 10 μM)",IC50 [3] [µM],IC50 ([4]; BxPC-3) [µM],IC50 [5] [µM],IC50 [6] [µM],also measured
"COc1cccc2c1C(=O)c1c(O)c3c(c(O)c1C2=O)C[C@@](O)(C(=O)CO)C[C@@H]3O[C@H]1C[C@H](N)[C@H](O)[C@H](C)O1 [Doxorubicin, doxorubicin, reference compound]",35.5,1.9,0.71,0.44,,,,,,,,,,,,,,,,,"IC50 ([1]; Canis lupus familiaris): 7.1 ± 0.3 µM; viability at 24 h, 0.1 µM [2, 12]: 87.2 ± 7.3%; viability at 24 h, 1 µM [2, 12]: 76.9 ± 7.3%; viability at 24 h, 10 µM [2, 12]: 25.6 ± 7.3%; viability at 24 h, 100 µM [2, 12]: 0%; LC50 at 24 h [2]: 3.3 ± 1.1 µM; inhibition at 0.1 µM ([3]; Homo sapiens, HL-60, 0.1 μM): 16.5 ± 1.8%; inhibition at 1 µM ([3]; Homo sapiens, HL-60, 1 μM): 92.9 ± 0.7%; inhibition at 10 µM ([3]; Homo sapiens, HL-60, 10 μM): 95 ± 0.6%; IC50 ([3]; Homo sapiens): 0.2 ± 0.1 µM; IC50 ([4]; Homo sapiens, BXPC-3): 3.7 ± 0.3 µM; IC50 ([5]; Homo sapiens): 10 ± 0.4 µM; IC50 ([6]; Homo sapiens): 16.2 ± 0.6 µM"
C=CCNC(=S)N/N=C/c1cccnc1 [HL^a],,,,,,,,,,,,,,,,,,,,,"inhibition at 0.1 µM ([3]; Homo sapiens, HL-60, 0.1 μM): 0.9 ± 0.2%; inhibition at 1 µM ([3]; Homo sapiens, HL-60, 1 μM): 1.5 ± 0.5%; inhibition at 10 µM ([3]; Homo sapiens, HL-60, 10 μM): 6.1 ± 0.3%"
"C=CCNC(=NN=Cc1ccccn1)[S][Cu][Cl] [compound 2, [Cu(L)Cl]]",30,60,7.5,23,15.6,3.91,3 ± 0.4,> 100,102.6 ± 0.0,97.4 ± 7.3,0.0,0.0,3.5 ± 2.8,40.2 ± 2.8,99.2 ± 0.2,99.4 ± 0.6,0.1 ± 0.06,0.05 ± 0.02,0.4 ± 0.03,0.13 ± 0.02,MFC [7]: 31.3 µg/mL; MBC [8]: 7.81 µg/mL; MBC [11]: 0.244 µg/mL; MIC [11]: 0.122 µg/mL
"C=CCNC(=NN=Cc1ccccn1)[S][Cu][Br] [compound 3, [Cu(L)Br]]",62,103,21,31,7.81,7.81,6.2 ± 1.4,43 ± 2.1,102.6 ± 0.0,97.4 ± 7.3,0.0,0.0,3.5 ± 2.8,24.5 ± 1.9,100.0 ± 0.3,100.0 ± 0.1,0.1 ± 0.04,0.06 ± 0.01,0.3 ± 0.03,0.2 ± 0.1,MFC [7]: 15.6 µg/mL; MBC [8]: 15.6 µg/mL; MBC [11]: 0.488 µg/mL; MIC [11]: 0.244 µg/mL
"C=CCNC(=NN=Cc1ccccn1)[S][Cu][O]C(C)=O.C=CCNC(=NN=Cc1ccccn1)[S][Cu][O]C(C)=O.O.O.O.O [compound 4, [Cu2(L)2(CH3COO)2]·4H2O]",20,100,10,40,31.3,1.95,2 ± 0.2,40.3 ± 1.8,76.9 ± 7.3,66.7 ± 7.3,0.0,0.0,1.3 ± 0.5,32.0 ± 2.3,99.8 ± 0.2,100.0 ± 0.2,0.1 ± 0.02,0.02 ± 0.01,0.2 ± 0.02,0.05 ± 0.01,MFC [7]: 62.5 µg/mL; MBC [8]: 3.91 µg/mL; MBC [11]: 0.488 µg/mL; MIC [11]: 0.244 µg/mL
"C=CCNC(=S)NN=Cc1ccccn1.C=CCNC(=S)NN=Cc1ccccn1.O.[Cl-].[Cl-].[Ni+2] [compound 5, [Ni(HL)2]Cl2·H2O]",>1000,>27,,>34,500,1000,> 100,8.6 ± 0.1,102.6 ± 0.0,102.6 ± 0.0,97.4 ± 7.3,87.2 ± 7.3,> 100,54.5 ± 1.1,94.9 ± 0.7,108.5 ± 0.5,0.09 ± 0.01,3.6 ± 0.9,> 100,2.9 ± 0.4,Effect on growth and proliferation of normal MDCK cell line (in words) [1]: practically do not affect the growth and proliferation; MBC [11]: 31.3 µg/mL; MIC [11]: 15.6 µg/mL
"C=CCNC([S-])=NN=Cc1ccccn1.C=CCNC([S-])=NN=Cc1ccccn1.[Cl-].[Co+3] [compound 6, [Co(L)2]Cl]",,>24,>40,,62.5,250,> 100,> 100,97.4 ± 7.3,97.4 ± 7.3,92.3 ± 0.0,35.9 ± 7.3,65.4 ± 11.8,4.1 ± 0.3,6.9 ± 1.7,24.1 ± 0.6,> 10,4.1 ± 0.5,2.5 ± 0.5,> 100,MFC [7]: 250 µg/mL; MBC [8]: 500 µg/mL; Effect on growth and proliferation of normal MDCK cell line (in words) [1]: practically do not affect the growth and proliferation; MBC [11]: 125 µg/mL; MIC [11]: 62.5 µg/mL

# Reference: publication PMC9159852, “Synthesis, Structure, and Biologic Activity of Some Copper, Nickel, Cobalt, and Zinc Complexes with 2-Formylpyridine N^4-Allylthiosemicarbazone” (Bioinorganic Chemistry and Applications, 2022)
